From ChEMBL document CHEMBL5375982, “How Modulator Binding at the Amyloidβ-γ-Secretase Interface Enhances Substrate Binding and Attenuates Membrane Distortion” (J Med Chem, 2023)
Activity calls are given as the source filed them. No cut-off for these calls is given here.

What was measured:
Assay type in all cases: cell-based
[1] = molecular target: T1, Gamma-secretase (Homo sapiens) (UniProt Q96BI3+Q9NZ42+Q8WW43+P49768+Q92542+P49810); test: Modulation of gamma-secretase activity in HEK293T cells transfected with APP C99 K28R mutant assessed as increase in processivity at 10 uM incubated for 24 to 30 hrs by ELISA; conditions: filed as modulator, time 24-30 hrs
[2] = molecular target: T1, Gamma-secretase (Homo sapiens); test: Modulation of gamma-secretase activity in HEK293T cells transfected with APP C99 K28D mutant assessed as […] in amyloidbeta37 to amyloidbeta40 ratio at 10 uM incubated for 24 to 30 hrs by ELISA; conditions: filed as modulator, time 24-30 hrs
[3] = molecular target: T1, Gamma-secretase (Homo sapiens); test: Modulation of gamma-secretase activity in HEK293T cells transfected with APP C99 K28D mutant assessed as increase in processivity at 10 uM incubated for 24 to 30 hrs by ELISA; conditions: time 24-30 hrs
[4] = molecular target: T1, Gamma-secretase (Homo sapiens); test: Modulation of gamma-secretase activity in HEK293T cells transfected with wild type APP C99 assessed as increase in processivity at 10 uM incubated for 24 to 30 hrs by ELISA; conditions: filed as modulator, time 24-30 hrs
[5] = molecular target: T1, Gamma-secretase (Homo sapiens); test: Modulation of gamma-secretase activity in HEK293T cells transfected with APP C99 K28E mutant assessed as […] in amyloidbeta37 to amyloidbeta40 ratio at 10 uM incubated for 24 to 30 hrs by ELISA; conditions: filed as modulator, time 24-30 hrs
[6] = molecular target: T1, Gamma-secretase (Homo sapiens); test: Modulation of gamma-secretase activity in HEK293T cells transfected with APP C99 K28E mutant assessed as increase in processivity at 10 uM incubated for 24 to 30 hrs by ELISA; conditions: time 24-30 hrs

Activity [1]: Active | Activity [2]: Active | Activity [3]: inactive | Activity [4]: Active | Activity [5]: Active | Activity [6]: inactive
SMILES: COc1cc(/C=C2\CCCN([C@@H](C)c3ccc(F)cc3)C2=O)ccc1-n1cnc(C)c1
